The results in this text go back to ChEMBL document CHEMBL3991601, “The target landscape of clinical kinase drugs” (Science, 2017).

pKd: −log10 of the molar value. Calls of active or inactive are those of the source. Cut-off read from the data, not from the text of the source, for most assays here: actives have a measured Kd and inactives only a lower limit.

In general, Kd refers to the concentration at which binding is half-saturated. As a reminder, the pKd is the Kd on a negative log10 scale, so that one unit is a factor of ten. Read a low pKd as a large Kd.

Assay [1] deals with Mitogen-activated protein kinase 3 (Homo sapiens, UniProt P27361).
Sequence of Mitogen-activated protein kinase 3 (P27361 whole entry): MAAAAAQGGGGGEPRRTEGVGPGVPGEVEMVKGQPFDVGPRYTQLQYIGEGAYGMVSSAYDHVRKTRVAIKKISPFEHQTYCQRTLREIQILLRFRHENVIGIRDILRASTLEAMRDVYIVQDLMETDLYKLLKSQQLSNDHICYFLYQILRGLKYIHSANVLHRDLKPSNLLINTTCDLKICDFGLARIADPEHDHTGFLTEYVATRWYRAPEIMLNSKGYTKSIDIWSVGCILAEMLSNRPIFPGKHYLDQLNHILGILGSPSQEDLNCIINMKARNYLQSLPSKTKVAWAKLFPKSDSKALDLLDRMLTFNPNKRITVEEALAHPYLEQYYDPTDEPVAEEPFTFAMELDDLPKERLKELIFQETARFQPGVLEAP
The target in assay [2] is Putative heat shock protein HSP 90-beta 2 (Homo sapiens, UniProt Q58FF8).
Sequence of Putative heat shock protein HSP 90-beta 2 (Q58FF8 whole entry): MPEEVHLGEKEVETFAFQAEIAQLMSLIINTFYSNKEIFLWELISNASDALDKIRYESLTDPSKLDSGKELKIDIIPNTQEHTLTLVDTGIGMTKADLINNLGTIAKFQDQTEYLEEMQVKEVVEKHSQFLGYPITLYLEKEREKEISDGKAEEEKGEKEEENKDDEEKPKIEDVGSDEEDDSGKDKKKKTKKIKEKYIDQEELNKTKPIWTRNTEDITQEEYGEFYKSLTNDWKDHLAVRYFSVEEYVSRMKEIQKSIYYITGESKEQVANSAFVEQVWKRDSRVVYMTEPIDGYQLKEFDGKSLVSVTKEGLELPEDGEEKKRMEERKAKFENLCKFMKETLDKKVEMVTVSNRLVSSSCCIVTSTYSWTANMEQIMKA
The target of assay [3] is T1, EKC/KEOPS complex subunit TP53RK (Homo sapiens, UniProt Q96S44).
T1 sequence (Q96S44 whole entry): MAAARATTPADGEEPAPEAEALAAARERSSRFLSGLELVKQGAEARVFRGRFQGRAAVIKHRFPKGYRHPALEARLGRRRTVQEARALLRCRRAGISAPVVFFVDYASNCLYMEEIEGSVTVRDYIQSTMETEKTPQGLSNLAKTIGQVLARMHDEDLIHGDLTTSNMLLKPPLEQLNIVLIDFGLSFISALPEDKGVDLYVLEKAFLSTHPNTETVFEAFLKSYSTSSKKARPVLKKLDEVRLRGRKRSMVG

Assay [4] addresses T2, Serine/threonine-protein kinase Nek2 (Homo sapiens, UniProt P51955).
T2 sequence (P51955 whole entry): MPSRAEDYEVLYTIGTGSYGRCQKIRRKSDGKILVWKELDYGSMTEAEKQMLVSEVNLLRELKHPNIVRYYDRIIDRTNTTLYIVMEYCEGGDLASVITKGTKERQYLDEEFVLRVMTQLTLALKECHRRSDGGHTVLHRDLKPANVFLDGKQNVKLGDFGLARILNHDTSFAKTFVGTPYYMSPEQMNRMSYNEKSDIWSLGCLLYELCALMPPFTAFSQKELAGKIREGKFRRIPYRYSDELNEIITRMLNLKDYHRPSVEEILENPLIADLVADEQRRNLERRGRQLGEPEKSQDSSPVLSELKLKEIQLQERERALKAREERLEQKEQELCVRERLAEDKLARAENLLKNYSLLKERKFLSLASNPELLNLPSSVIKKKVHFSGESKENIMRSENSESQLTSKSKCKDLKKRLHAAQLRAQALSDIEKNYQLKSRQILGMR

For assay [5], the target named is Tyrosine-protein kinase BTK (Homo sapiens, UniProt Q06187).
Sequence of Tyrosine-protein kinase BTK (Q06187 whole entry): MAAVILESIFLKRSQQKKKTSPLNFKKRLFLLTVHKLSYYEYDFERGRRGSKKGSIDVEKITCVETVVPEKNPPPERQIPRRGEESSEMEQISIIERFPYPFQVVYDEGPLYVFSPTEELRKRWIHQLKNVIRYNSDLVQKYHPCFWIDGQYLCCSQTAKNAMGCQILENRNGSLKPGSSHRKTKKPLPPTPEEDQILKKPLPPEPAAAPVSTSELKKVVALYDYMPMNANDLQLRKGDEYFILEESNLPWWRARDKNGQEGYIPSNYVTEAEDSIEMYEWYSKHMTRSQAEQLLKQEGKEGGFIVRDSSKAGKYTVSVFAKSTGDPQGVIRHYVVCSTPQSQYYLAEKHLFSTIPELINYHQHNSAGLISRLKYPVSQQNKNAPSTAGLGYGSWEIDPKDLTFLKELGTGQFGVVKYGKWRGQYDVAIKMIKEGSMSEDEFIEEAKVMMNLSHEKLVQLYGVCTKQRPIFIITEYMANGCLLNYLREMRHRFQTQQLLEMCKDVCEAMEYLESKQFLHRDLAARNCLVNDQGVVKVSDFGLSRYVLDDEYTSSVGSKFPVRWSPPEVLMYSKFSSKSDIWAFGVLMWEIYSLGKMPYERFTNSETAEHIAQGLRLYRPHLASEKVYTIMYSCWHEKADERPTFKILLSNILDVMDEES
For assay [6], the target named is NADH dehydrogenase [ubiquinone] 1 alpha subcomplex subunit 13 (Homo sapiens, UniProt Q9P0J0).
Sequence of NADH dehydrogenase [ubiquinone] 1 alpha subcomplex subunit 13 (Q9P0J0 whole entry, one chain of several): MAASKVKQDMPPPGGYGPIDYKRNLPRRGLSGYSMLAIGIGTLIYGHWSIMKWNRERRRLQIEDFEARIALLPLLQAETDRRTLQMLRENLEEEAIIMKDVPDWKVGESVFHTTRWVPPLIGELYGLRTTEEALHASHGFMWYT
In assay [7] the target is Tyrosine-protein kinase HCK (Homo sapiens, UniProt P08631).
Sequence of Tyrosine-protein kinase HCK (P08631 whole entry): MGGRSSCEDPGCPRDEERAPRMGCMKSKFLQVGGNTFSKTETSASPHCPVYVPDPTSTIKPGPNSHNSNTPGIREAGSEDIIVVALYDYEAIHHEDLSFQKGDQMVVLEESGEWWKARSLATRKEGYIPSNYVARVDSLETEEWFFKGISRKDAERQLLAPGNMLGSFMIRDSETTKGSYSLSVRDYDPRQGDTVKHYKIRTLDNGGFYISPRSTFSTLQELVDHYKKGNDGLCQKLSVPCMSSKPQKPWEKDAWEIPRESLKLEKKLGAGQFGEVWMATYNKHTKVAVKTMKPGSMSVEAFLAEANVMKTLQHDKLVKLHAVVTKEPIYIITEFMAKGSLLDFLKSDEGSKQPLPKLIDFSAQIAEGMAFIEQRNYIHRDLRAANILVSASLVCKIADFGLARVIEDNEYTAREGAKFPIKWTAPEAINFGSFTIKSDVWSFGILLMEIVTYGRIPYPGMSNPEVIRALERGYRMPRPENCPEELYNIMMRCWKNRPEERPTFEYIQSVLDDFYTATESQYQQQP
Assay [8] has as its target Structural maintenance of chromosomes protein 2 (Homo sapiens, UniProt O95347).
The target in a further assay is T3, Ephrin type-B receptor 4 (Homo sapiens, UniProt P54760).
T3 sequence (P54760 whole entry): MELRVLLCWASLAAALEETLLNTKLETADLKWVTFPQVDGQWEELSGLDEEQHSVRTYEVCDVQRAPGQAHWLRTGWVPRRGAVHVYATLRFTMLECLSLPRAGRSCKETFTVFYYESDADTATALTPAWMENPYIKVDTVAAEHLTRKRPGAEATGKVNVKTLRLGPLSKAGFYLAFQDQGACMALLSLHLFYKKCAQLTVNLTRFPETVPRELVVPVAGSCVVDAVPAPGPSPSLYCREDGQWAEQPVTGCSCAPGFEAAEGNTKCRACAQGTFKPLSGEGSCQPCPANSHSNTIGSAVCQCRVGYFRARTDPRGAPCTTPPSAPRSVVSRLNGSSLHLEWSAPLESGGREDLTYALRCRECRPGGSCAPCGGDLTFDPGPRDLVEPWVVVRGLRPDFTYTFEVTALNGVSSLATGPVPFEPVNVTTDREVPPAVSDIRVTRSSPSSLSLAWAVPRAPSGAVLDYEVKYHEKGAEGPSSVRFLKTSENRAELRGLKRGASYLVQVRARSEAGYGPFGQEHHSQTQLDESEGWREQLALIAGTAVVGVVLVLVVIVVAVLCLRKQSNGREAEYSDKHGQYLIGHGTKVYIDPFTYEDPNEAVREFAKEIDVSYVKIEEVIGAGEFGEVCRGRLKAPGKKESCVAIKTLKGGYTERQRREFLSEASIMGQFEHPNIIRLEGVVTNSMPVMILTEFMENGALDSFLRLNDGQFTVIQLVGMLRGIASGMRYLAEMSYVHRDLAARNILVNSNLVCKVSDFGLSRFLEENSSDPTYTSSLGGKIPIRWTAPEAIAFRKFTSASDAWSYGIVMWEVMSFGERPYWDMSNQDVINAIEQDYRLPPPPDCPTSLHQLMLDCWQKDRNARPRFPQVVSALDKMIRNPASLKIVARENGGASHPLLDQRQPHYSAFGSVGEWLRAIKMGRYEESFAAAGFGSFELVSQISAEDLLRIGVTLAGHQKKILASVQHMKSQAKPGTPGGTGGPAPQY

The target of assay [9] is Eukaryotic translation initiation factor 2-alpha kinase 1 (Homo sapiens, UniProt Q9BQI3).
Sequence of Eukaryotic translation initiation factor 2-alpha kinase 1 (Q9BQI3 whole entry): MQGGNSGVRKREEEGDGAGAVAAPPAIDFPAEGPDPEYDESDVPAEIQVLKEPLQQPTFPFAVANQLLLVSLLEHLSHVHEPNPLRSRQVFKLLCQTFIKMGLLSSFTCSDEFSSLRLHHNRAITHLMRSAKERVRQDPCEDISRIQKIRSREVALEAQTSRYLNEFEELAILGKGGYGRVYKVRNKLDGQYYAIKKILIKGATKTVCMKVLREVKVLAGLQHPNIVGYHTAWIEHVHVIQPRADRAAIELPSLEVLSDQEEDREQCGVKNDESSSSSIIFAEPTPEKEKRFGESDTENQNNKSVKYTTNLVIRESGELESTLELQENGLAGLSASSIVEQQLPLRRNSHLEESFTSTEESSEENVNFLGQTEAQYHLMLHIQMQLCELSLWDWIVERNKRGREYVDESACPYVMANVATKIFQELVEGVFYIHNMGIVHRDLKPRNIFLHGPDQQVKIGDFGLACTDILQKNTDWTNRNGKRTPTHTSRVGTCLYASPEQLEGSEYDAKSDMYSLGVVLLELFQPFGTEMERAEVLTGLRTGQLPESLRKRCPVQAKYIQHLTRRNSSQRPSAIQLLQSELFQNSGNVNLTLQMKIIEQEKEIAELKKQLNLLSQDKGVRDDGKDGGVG
Assay [10] has as its target RAC-gamma serine/threonine-protein kinase (Homo sapiens, UniProt Q9Y243).
The target in assay [11] is T4, Ferrochelatase, mitochondrial (Homo sapiens, UniProt P22830).
T4 sequence (P22830 whole entry): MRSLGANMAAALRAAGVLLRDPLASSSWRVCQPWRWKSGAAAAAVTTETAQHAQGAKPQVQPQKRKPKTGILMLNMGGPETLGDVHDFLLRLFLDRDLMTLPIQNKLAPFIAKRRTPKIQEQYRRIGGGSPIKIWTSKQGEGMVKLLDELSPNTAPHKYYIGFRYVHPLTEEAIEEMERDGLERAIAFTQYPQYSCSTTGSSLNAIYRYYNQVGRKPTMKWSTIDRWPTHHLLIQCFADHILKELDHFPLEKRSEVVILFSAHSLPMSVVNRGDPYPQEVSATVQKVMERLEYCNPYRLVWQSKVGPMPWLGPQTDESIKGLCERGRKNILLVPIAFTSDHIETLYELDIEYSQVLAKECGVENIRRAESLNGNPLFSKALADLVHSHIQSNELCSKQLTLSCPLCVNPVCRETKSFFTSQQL

In assay [12] the target is Ribosomal protein S6 kinase alpha-5 (Homo sapiens, UniProt O75582).
Note: in the data inactive means no Kd found up to 30 µM.

Sequence of RAC-gamma serine/threonine-protein kinase (Q9Y243 whole entry): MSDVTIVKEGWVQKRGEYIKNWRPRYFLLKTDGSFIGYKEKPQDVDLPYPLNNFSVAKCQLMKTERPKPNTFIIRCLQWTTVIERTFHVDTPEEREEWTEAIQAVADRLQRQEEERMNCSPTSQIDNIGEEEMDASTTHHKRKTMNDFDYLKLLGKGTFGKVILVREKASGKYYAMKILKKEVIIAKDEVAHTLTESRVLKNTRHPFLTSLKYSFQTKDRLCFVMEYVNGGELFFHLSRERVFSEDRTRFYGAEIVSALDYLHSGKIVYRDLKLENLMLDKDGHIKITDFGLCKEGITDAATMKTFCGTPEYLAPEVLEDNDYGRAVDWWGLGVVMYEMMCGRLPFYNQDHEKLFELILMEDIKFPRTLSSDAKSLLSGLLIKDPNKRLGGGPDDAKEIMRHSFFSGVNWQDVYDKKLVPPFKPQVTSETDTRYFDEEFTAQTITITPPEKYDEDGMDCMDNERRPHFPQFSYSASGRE
Sequence of Structural maintenance of chromosomes protein 2 (O95347 whole entry): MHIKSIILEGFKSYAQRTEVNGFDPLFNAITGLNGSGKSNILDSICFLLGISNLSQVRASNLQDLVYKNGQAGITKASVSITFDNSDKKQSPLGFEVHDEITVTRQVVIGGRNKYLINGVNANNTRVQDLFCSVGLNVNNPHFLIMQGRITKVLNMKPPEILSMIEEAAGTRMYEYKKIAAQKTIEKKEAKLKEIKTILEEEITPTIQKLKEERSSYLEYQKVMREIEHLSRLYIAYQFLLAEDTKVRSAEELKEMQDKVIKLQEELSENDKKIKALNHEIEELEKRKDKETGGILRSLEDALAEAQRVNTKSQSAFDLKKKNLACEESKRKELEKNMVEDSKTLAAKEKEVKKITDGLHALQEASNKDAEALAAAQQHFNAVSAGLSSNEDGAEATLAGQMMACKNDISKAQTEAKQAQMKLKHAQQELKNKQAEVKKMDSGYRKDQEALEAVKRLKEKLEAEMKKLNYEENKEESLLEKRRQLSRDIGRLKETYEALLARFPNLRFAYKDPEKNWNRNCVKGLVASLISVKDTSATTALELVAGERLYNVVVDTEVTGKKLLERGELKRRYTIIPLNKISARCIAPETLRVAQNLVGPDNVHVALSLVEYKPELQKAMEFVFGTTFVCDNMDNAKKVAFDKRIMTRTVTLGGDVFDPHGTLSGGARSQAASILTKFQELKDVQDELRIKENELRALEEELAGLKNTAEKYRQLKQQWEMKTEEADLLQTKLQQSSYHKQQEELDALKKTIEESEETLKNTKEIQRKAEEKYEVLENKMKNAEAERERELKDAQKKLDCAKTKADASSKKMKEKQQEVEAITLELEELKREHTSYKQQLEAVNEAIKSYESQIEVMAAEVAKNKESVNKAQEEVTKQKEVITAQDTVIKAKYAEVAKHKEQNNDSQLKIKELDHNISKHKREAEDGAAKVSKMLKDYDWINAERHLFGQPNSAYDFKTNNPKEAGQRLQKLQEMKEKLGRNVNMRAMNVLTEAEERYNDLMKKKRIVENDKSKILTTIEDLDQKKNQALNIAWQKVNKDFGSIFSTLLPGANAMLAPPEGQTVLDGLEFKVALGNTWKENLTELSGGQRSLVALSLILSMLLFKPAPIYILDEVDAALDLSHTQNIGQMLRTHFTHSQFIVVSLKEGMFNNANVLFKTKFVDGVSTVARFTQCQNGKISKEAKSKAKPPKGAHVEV

Take `Cc1cc(Nc2nc(N[C@@H](C)c3ncc(F)cn3)ncc2Cl)n[nH]1` [AZD-1480]: the Kd in [1], in [2], in assay [3], in assay [4], in [5] and in [6] was > 30 µM (inactive) in each case. Further, the Kd (in assay [7]; in assay [8]; on Ephrin type-B receptor 4; in assay [9]; in assay [10]; in [11]) was > 30 µM (inactive) throughout. Besides, the Kd in [12] is > 30 µM (inactive).

Turning to `Cc1ccc(C(=O)Nc2ccc(Oc3cc4cnn(C)c4cc3-c3cn[nH]c3)c(F)c2)c(=O)n1-c1ccc(F)cc1` [MERESTINIB], the Kd in assay [1], in assay [2], in [3], in assay [4], in assay [5] and in assay [6] was > 30 µM (inactive) each time. The Kd (in [7]; in assay [8]; at Ephrin type-B receptor 4; in assay [9]; in assay [10]; in assay [11]) was > 30 µM (inactive) in each case. In addition, the Kd in assay [12] was > 30 µM (inactive).

As for `C#Cc1cccc(Nc2ncnc3cc4c(cc23)OCCOCCOCCO4)c1` [ICOTINIB], the Kd in assay [1], in assay [2], in assay [3], in [4], in assay [5] and in assay [6] was > 30 µM (inactive) each time. In addition, the Kd (in assay [7]; in assay [8]; at Ephrin type-B receptor 4; in [9]; in assay [10]; in assay [11]) was > 30 µM (inactive) throughout. The Kd in assay [12] is > 30 µM (inactive).

For the molecule `COc1cc(F)c(F)c(Nc2ccc(I)cc2F)c1NS(=O)(=O)C1(C[C@H](O)CO)CC1` [REFAMETINIB], the Kd in [1], in [2], in assay [3], in assay [4], in [5] and in assay [6] was > 30 µM (inactive) each time. The Kd (in assay [7]; in assay [8]; on Ephrin type-B receptor 4; in assay [9]; in assay [10]; in assay [11]) was > 30 µM (inactive) in each case. The Kd in assay [12] was > 30 µM (inactive).

As for `O[C@H]1CC[C@H](Nc2ncc3nc(Nc4c(F)cc(F)cc4F)n([C@H]4CCOC4)c3n2)CC1` [TANZISERTIB], the equilibrium dissociation constant (Kd) is 3.69 µM (active) in [1]; > 30 µM (inactive) in [2]; > 30 µM (inactive) in [3]; > 30 µM (inactive) in assay [4]; > 30 µM (inactive) in [5]; > 30 µM (inactive) in [6]. Moreover, the Kd (in assay [7]; in assay [8]; at Ephrin type-B receptor 4; in assay [9]; in assay [10]; in assay [11]) was > 30 µM (inactive) each time. The Kd in [12] was > 30 µM (inactive).

Regarding `FC(F)(F)c1ccc(CNc2ccc(Cc3c[nH]c4ncc(Cl)cc34)cn2)cn1` [PEXIDARTINIB], the Kd in assay [1], in [2], in assay [3], in assay [4], in [5] and in assay [6] was > 30 µM (inactive) each time. In addition, the Kd (in [7]; in assay [8]; on Ephrin type-B receptor 4; in assay [9]; in [10]; in assay [11]) was > 30 µM (inactive) throughout. Besides, in [12], the Kd was > 30 µM (inactive).

Consider `CNC(=O)c1cc(COc2nnc(Nc3ccc(Cl)cc3)c3ccoc23)ccn1` [TELATINIB], for which the Kd in assay [1], in assay [2], in [3], in [4], in assay [5] and in assay [6] was > 30 µM (inactive) in each case. The Kd (in assay [7]; in [8]; on Ephrin type-B receptor 4; in assay [9]; in assay [10]; in [11]) was > 30 µM (inactive) each time. Besides, the Kd in assay [12] was > 30 µM (inactive).

Regarding `COc1cc2ncnc3c2cc1OCCCCCN(C)Cc1ccc(Br)cc1N3` [JNJ-26483327], the Kd in [1], in assay [2], in assay [3], in [4], in [5] and in assay [6] was > 30 µM (inactive) each time. In addition, the Kd (in assay [7]; in assay [8]; on Ephrin type-B receptor 4; in [9]; in [12]) was > 30 µM (inactive) throughout. Besides, the pKd in assay [10] is 8.22; in assay [11], 5.40.

Consider `CNC(=O)c1cccc(-c2ccc3c(N4CCOC[C@@H]4C)nc(N4CCOC[C@@H]4C)nc3n2)c1` [VISTUSERTIB], for which the Kd in assay [1], in assay [2], in [3], in [4], in assay [5] and in assay [6] was > 30 µM (inactive) throughout. Also, the Kd (in assay [7]; in assay [8]; at Ephrin type-B receptor 4; in [9]; in assay [10]; in assay [11]) was > 30 µM (inactive) throughout. Also, the Kd in assay [12] is > 30 µM (inactive).
